Experimental data from US12552800B2, “Compounds for diagnosis” (AC IMMUNE SA, priority 2020, dated 2026).

What was measured:
[1] = target: T1, PD brain-derived a-syn aggregates (Homo sapiens, UniProt P37840); experiment: Micro-radiobinding competition assay against Example-1 [^3H-1] (Table 8); format: binding; conditions: for Competition at 100 nM (%): 100 nM non-radiolabelled example compound vs Example-1 [^3H-1] ligand; for Competition at 100 nM (%) / Competition at 1 μM (%): human PD brain-derived a-syn aggregates; for Competition at 1 μM (%): 1 μM non-radiolabelled example compound vs Example-1 [^3H-1] ligand
T1 construct: from tissue; host or cells: human PD donor brain, sarkosyl-insoluble 100,000 x g pellet
Description: PD brain-derived a-syn aggregates were spotted onto microarray slides. The slides were incubated with the Example-1 [^3H-1] at 6 nM or 20 nM and the example compounds (non-radiolabelled) at 1 μM and 100 nM. In some cases, the non-radiolabelled example compounds were further assessed for a range of different concentrations, varying from 0.05 nM to 2 μM. After incubation, slides were washed and scanned by a real-time autoradiography system (BeaQuant, ai4R). Quantification of the signal was performed by using the Beamage image analysis software (ai4R). […] All measurements were performed with at least two technical replicates. For compounds tested in more than one experiment, the mean of the replicates or K; values in independent experiments is reported.
Results: Example compounds were assessed for their potency to compete with the binding of Example-1 [^3H-1] ligand to PD patient brain-derived a-syn aggregates. Results of the micro-radiobinding competition assay for the example compounds tested are shown in Table 8 as: % competition at 1 μM and 100 nM.

[2] = target: T1, PD brain-derived a-syn aggregates; experiment: as above; format: binding; conditions: competition over Example-1 [^3H-1]

| Competition at 100 nM (%) [1] | Competition at 1 μM (%) [1] | Ki [2] | Ki ([1]; mean of Ki values in independent experiments using PD brain-derived homogenates from two different donors) | Structure (SMILES) |
| --- | --- | --- | --- | --- |
| 64% | 94% | 0.068 µM | – | O=C1c2cn(-c3ccc(N4CC[C@@H](F)C4)nc3)nc2CN1c1ccnnc1 [Example 25] |
| 54% | 81% | 0.182 µM | – | Cc1cncc(N2Cc3nn(-c4ccc(N5CC[C@H](F)C5)nc4)cc3C2=O)c1 [Example 108] |
| 38% | 76% | 0.089 µM | – | COc1cncc(N2Cc3nn(-c4ccc(N5CC[C@H](F)C5)nc4)cc3C2=O)c1 [Example 98] |
| 71% | 88% | 0.019 µM | – | O=C1c2cn(-c3ccc(N4CC[C@H](F)C4)nc3)nc2CN1c1ccncc1 [Example 54] |
| 23% | 83% | 0.074 µM | – | O=C1c2cn(-c3ccc(N4CC[C@H](F)C4)nc3)nc2CN1c1ccnnc1 [Example 19] |
| 44% | 84% | 0.042 µM | – | O=C1c2cn(-c3ccc(N4CC[C@@H](F)C4)nc3)nc2CN1c1cncc(F)c1 [Example 91] |
| 51% | 83% | 0.056 µM | – | Cc1ccnc(N2Cc3nn(-c4ccc(N5CC[C@@H](F)C5)nc4)cc3C2=O)c1 [Example 80] |
| 87% | 99% | 0.013 µM | – | COc1ccc(N2Cc3nn(-c4ccc(N5CC[C@@H](F)C5)nc4)cc3C2=O)cc1 [Example 27] |
| 68% | 93% | 0.056 µM | – | O=C1c2cn(-c3ccc(N4CC[C@@H](F)C4)nc3)nc2CN1c1ncccc1O [Example 167] |
| 68% | 100% | 0.021 µM | – | Cl.O=C1c2cn(-c3ccc(N4CC[C@H](F)C4)nc3)nc2CN1c1cnccn1 [Example 17] |
| 33% | 84% | 0.084 µM | – | COc1cncc(N2Cc3nn(-c4ccc(N5CC[C@@H](F)C5)nc4)cc3C2=O)c1 [Example 97] |
| 73% | 96% | 0.045 µM | – | O=C1c2cn(-c3ccc(N4CC[C@H](F)C4)nc3)nc2CN1c1ncccc1O [Example 169] |
| 34% | 68% | 0.054 µM | – | Cc1c2c(nn1-c1ccc(N3CC[C@@H](F)C3)nc1)CN(c1ccccn1)C2=O [Example 95] |
| 57% | 83% | 0.149 µM | – | Cc1cncc(N2Cc3nn(-c4ccc(N5CC[C@@H](F)C5)nc4)cc3C2=O)c1 [Example 105] |
| – | 75% | 0.311 µM | – | O=C1c2cn(-c3ccc(N4CC[C@H](F)C4)nc3)nc2CN1c1ccc(O)nc1 [Example 101] |
| 72% | 96% | 0.055 µM | – | O=C1c2cn(-c3ccc(N4CC[C@@H](F)C4)nc3)nc2CN1c1cc(O)ccn1 [Example 166] |
| 87% | 108% | 0.02 µM | – | Cn1cc(N2Cc3nn(-c4ccc(N5CC[C@@H](F)C5)nc4)cc3C2=O)cn1 [Example 26] |
| 49% | 99% | 0.067 µM | – | O=C1c2cn(-c3ccc(N4CC[C@H](F)C4)nc3)nc2CN1c1cccc(O)n1 [Example 163] |
| 48% | 90% | – | – | O=C1c2cn(-c3ccc(N4CC[C@H](F)C4)nc3)nc2CN1c1ccccc1 [Example 20] |
| 16% | 25% | – | – | Cc1ccccc1N1Cc2nn(-c3ccc(N4CC[C@H](F)C4)nc3)cc2C1=O [Example 32] |
| 48% | – | – | – | O=C1c2cn(-c3ccc(N4CC[C@@H](F)C4)nc3)nc2CN1c1ccnc(O)c1 [Example 171] |
| 58% | 90% | – | 0.061 µM | Cc1ccc(N2Cc3nn(-c4ccc(N5CC[C@@H](F)C5)nc4)cc3C2=O)cn1 [Example 10] |
| 72% | 92% | – | – | O=C1c2cn(-c3ccc(N4CC[C@@H](F)C4)cn3)nc2CN1c1cccnc1 [Example 66] |
| 58% | 73% | – | – | Cc1cccc(N2Cc3nn(-c4ccc(N5CC[C@@H](F)C5)nc4)cc3C2=O)n1 [Example 75] |
| 64% | – | – | – | N#Cc1cccc(N2Cc3nn(-c4ccc(N5CC[C@H](F)C5)nc4)cc3C2=O)c1 [Example 65] |
| 12% | 47% | – | – | Cc1c2c(nn1-c1ccc(N3CC[C@H](F)C3)nc1)CN(c1ccncc1)C2=O [Example 93] |
| 86% | – | – | – | N#Cc1ccc(N2Cc3nn(-c4ccc(N5CC[C@H](F)C5)nc4)cc3C2=O)cc1 [Example 59] |
| 24% | 39% | – | – | Cc1c2c(nn1-c1ccc(N3CC[C@@H](F)C3)nc1)CN(c1cnn(C)c1)C2=O [Example 96] |

More lines, now with the values behind:

| Structure (SMILES) | Competition at 100 nM (%) [1] | Competition at 1 μM (%) [1] | Ki [2] | Ki ([1]; mean of Ki values in independent experiments using PD brain-derived homogenates from two different donors) |
| --- | --- | --- | --- | --- |
| O=C1c2cn(-c3ccc(N4CC[C@H](F)C4)nc3)nc2CN1c1ccccn1 [Example 6] | 87% | 98% | 0.019 µM | – |
| O=C1c2cn(-c3ccc(N4CC[C@H](F)C4)nc3)nc2CN1c1cn[nH]c1 [Example 181] | 67% | 75% | 0.136 µM | – |
| Cl.O=C1c2cn(-c3ccc(N4CCCC4)nc3)nc2CN1c1cnc(F)cn1 [Example 143] | 80% | 91% | 0.008 µM | – |
| O=C1c2cn(-c3ccc(N4CCC[C@@H](F)C4)nc3)nc2CN1c1cccnc1 [Example 40] | 50% | 77% | 0.049 µM | – |
| O=C1c2cn(-c3ccc(N4CC(F)C4)nc3)nc2CN1c1cccnc1 [Example 48] | 42% | 77% | 0.132 µM | – |
| O=C1c2cn(-c3ccc(N4CC[C@H](F)C4)nc3)nc2CN1c1ncccn1 [Example 18] | 23% | 86% | 0.111 µM | – |
| O=C1c2cn(-c3ccc(N4CCCC4)nc3)nc2CN1c1cncc(F)c1 [Example 99] | 56% | 92% | 0.082 µM | – |
| O=C1c2cn(-c3ccc(N4CC[C@H](F)C4)nc3)nc2CN1c1cccnn1 [Example 151] | 51% | 81% | 0.226 µM | – |
| O=C1c2cn(-c3ccc(N4CC[C@@H](F)C4)nc3)nc2CN1c1ccccn1 [Example 5] | 68% | 98% | 0.026 µM | – |
| O=C1c2cn(-c3ccc(N4CCCC4)nc3)nc2CN1c1cncc(F)n1 [Example 139] | 58% | 77% | 0.007 µM | – |
| O=C1c2cn(-c3ccc(N4CC[C@H](F)C4)nc3)nc2CN1c1cnsc1 [Example 132] | 63% | 93% | – | – |
| Cn1cc(N2Cc3nn(-c4ccc(N5CCC[C@@H](F)C5)nc4)cc3C2=O)cn1 [Example 120] | 45% | 83% | – | – |
| Cn1cc(-n2cc3c(n2)CN(c2cncc(F)n2)C3=O)cn1 [Example 149] | – | 53% | – | – |
| CC(C)n1cc(N2Cc3nn(-c4ccc(N5CC[C@@H](F)C5)nc4)cc3C2=O)cn1 [Example 117] | 17% | 67% | – | – |
| O=C1c2cn(-c3ccc(N4CC[C@H](F)C4)nc3)nc2CN1c1ccns1 [Example 127] | 71% | 86% | – | – |
| COc1cccc(N2Cc3nn(-c4ccc(N5CC[C@H](F)C5)nc4)cc3C2=O)n1 [Example 78] | 60% | – | – | – |
| Cl.O=C1c2cn(-c3ccc(N4CCCC4)nc3)nc2CN1c1ccc(F)nc1 [Example 49] | 48% | 84% | – | – |
| Cn1ccc(N2Cc3nn(-c4ccc(N5CC[C@H](F)C5)nc4)cc3C2=O)n1 [Example 118] | 61% | 94% | – | – |
| N#Cc1cc(N2Cc3nn(-c4ccc(N5CC[C@H](F)C5)nc4)cc3C2=O)ccc1N [Example 22] | – | 72% | – | – |
| O=C1c2cn(-c3ccc(N4CCCC4)nc3)nc2CN1c1cnn(CCF)c1 [Example 129] | 25% | 74% | – | – |
| COc1ccc(N2Cc3nn(-c4ccc(N5CC[C@@H](F)C5)nc4)cc3C2=O)nc1 [Example 58] | 85% | 98% | – | – |
| O=C1c2cn(-c3ccc(N4CCCC4)nc3)nc2CN1c1cccc(F)n1 [Example 140] | 67% | – | – | – |
| Cn1cc(N2Cc3nn(-c4ccc(N5CC(F)C5)nc4)cc3C2=O)cn1 [Example 124] | 61% | 98% | – | – |
| O=C1c2cn(-c3ccc(N4CCCC4)nc3)nc2CN1c1nccnc1F [Example 42] | 57% | 89% | – | – |
| Nc1cc(N2Cc3nn(-c4ccc(N5CCCC5)nc4)cc3C2=O)ccc1F [Example 44] | 90% | – | – | – |
